Assay results taken from patent US11578079B2, “SUMO inhibitor compounds and uses thereof” (CITY OF HOPE, priority 2018, dated 2023).

How the values were obtained:
[1] = biological target: T1, SUMO (Homo sapiens, UniProt Q9UBT2); experiment: SUMO activity (Table I, biological activities); format: biochemical; set-up: key: + (less active); ++ (active); +++ (most active)
T1 sequence (Q9UBT2 1-640): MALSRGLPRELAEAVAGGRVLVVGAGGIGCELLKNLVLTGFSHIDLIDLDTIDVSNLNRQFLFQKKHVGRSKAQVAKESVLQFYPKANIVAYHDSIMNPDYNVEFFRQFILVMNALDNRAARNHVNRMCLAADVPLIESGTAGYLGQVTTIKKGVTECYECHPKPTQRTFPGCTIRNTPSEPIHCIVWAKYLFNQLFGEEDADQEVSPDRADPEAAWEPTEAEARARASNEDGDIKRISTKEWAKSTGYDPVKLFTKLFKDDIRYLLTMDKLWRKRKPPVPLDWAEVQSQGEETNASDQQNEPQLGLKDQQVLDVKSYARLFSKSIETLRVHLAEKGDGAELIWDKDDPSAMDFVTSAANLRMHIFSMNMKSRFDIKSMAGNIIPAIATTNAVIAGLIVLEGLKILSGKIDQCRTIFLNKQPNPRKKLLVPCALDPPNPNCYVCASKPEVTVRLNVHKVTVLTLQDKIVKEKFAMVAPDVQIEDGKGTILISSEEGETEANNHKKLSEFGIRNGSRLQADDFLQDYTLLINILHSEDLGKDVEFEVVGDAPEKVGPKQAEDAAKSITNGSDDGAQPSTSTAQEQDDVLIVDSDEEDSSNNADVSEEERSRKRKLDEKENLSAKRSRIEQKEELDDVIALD
T1 sequence (Q9UBE0 1-346 partner): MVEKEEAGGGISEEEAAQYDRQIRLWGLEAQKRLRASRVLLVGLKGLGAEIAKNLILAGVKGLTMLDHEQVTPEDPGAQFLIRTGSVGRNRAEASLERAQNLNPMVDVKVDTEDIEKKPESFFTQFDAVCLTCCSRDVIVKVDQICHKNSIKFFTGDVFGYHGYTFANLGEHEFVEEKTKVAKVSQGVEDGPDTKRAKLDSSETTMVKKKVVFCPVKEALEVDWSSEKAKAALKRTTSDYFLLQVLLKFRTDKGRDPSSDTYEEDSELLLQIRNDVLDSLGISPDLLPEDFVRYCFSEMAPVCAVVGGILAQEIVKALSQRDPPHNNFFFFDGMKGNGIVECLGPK

[2] = system: c-Myc; experiment: c-Myc activity (Table I, biological activities); set-up: key: + (less active); ++ (active); +++ (most active)

| SMILES | SUMO [1] | c-Myc [2] |
| --- | --- | --- |
| COC(=O)C1=C(C(N)=O)C2C=CC1(C(Cc1ccccc1)Nc1ccccc1)O2 (stereo not shown) [Compound 151] | ++ | + |
| COC(=O)C1=C(C(=O)NC2CCCCC2)C2C=CC1(C(Cc1ccccc1)Nc1ccccc1)O2 (stereo not shown) [Compound 160] | + | + |
| COC(=O)C1=C(C(=O)NC(C)(C)C)C2C=CC1(C(Cc1ccccc1)Nc1ccccc1)O2 (stereo not shown) [Compound 161] | + | + |
| COC(=O)C1=C(C(=O)OC)C2(C(Nc3ccccc3)c3ccccc3)C=CC1O2 (stereo not shown) [Compound 165] | ++ | + |
| CC#CC(Nc1ccccc1)C12C=CC(O1)C(C(=O)OC)=C2C(=O)OC (stereo not shown) [Compound 172] | ++ | ++ |
| C=CCCC(Nc1ccccc1)C12C=CC(O1)C(C(N)=O)=C2C(=O)OC (stereo not shown) [Compound 177] | + | + |
| COC(=O)C1=C(C(N)=O)C2C=CC1(C(Nc1ccccc1)C1CCC1)O2 (stereo not shown) [Compound 179] | + | + |
| C=CCCC(Nc1ccccc1)C12C=CC(O1)C(C(=O)OC)=C2C(=O)OC (stereo not shown) [Compound 181] | ++ | + |
| COC(=O)C1=C(C(=O)OC)C2(C(Nc3ccccc3)C3CCC3)C=CC1O2 (stereo not shown) [Compound 184] | ++ | + |
| COC(=O)C1=C(C(=O)OC)C2(C(Nc3ccccc3)C3CCCC3)C=CC1O2 (stereo not shown) [Compound 186] | ++ | + |
| COC(=O)C1=C(C(=O)OC)C2(C(CCc3ccccc3)Nc3ccccc3)C=CC1O2 (stereo not shown) [Compound 191] | ++ | + |
| COC(=O)C1=C(C(=O)NC2CCN(C)CC2)C2C=CC1(C(Cc1ccccc1)Nc1ccccc1)O2 (stereo not shown) [Compound 195] | +++ | ++ |
| COC(=O)C1=C(C(=O)NNc2ccccc2)C2C=CC1(C(Cc1ccccc1)Nc1ccccc1)O2 (stereo not shown) [Compound 200] | ++ | ++ |
| COC(=O)C1=C(C(=O)NCc2ccncc2)C2C=CC1(C(Cc1ccccc1)Nc1ccccc1)O2 (stereo not shown) [Compound 201] | ++ | + |
| CCCCC(Nc1cc(F)cc(F)c1)C12C=CC(O1)C(C(=O)OC)=C2C(=O)OC (stereo not shown) [Compound 212] | +++ | + |
| COC(=O)C1=C(C(=O)NC2CCN(C)CC2)C2C=CC1(C(Cc1ccccc1)Nc1cc(F)cc(Cl)c1)O2 (stereo not shown) [Compound 219] | ++ | ++ |

| SMILES | SUMO [1] | c-Myc [2] |
| --- | --- | --- |
| COC(=O)C1=C(C(=O)NNc2ccccn2)C2C=CC1(C(Cc1ccccc1)Nc1ccccc1)O2 (stereo not shown) [Compound 221] | ++ | + |
| COC(=O)C1=C(C(=O)NCCN(C)C)C2C=CC1(C(Cc1ccccc1)Nc1ccccc1)O2 (stereo not shown) [Compound 224] | +++ | ++ |
| COC(=O)C1=C(C(=O)NC2CCNCC2)C2C=CC1(C(Cc1ccccc1)Nc1ccccc1)O2 (stereo not shown) [Compound 225] | +++ | ++ |
| COC(=O)C1=C(C(=O)NCCN2CCOCC2)C2C=CC1(C(Cc1ccccc1)Nc1cc(F)cc(Cl)c1)O2 (stereo not shown) [Compound 226] | +++ | ++ |
| COC(=O)C1=C(C(=O)NC2CCN(C)C2)C2C=CC1(C(Cc1ccccc1)Nc1cc(F)cc(Cl)c1)O2 (stereo not shown) [Compound 238] | +++ | ++ |
| COC(=O)C1=C(C(=O)NC2CCN(C)C2)C2C=CC1(C(Cc1ccccc1)Nc1ccccc1)O2 (stereo not shown) [Compound 239] | +++ | + |
| COC(=O)C1=C(C(=O)OC)C2(C(Cc3ccc(NC(C)C)cc3)Nc3ccccc3)C=CC1O2 (stereo not shown) [Compound 684] | + |  |
| COC(=O)C1=C(C(=O)OC)C2(C(Cc3ccccc3Cl)Oc3ccccc3)C=CC1O2 (stereo not shown) [Compound 687] | + |  |
| COC(=O)C1=C(C(=O)NCCN(C)C)C2C=CC1(C(Cc1ccccc1Cl)Nc1ccc(F)cc1)O2 (stereo not shown) [Compound 688] | +++ |  |
| COC(=O)C1=C(C(=O)OC)C2(C(Cc3ccccc3Cl)Nc3ccccc3)CCC1O2 (stereo not shown) [Compound 689] | + |  |
| COC(=O)C1=C(C(=O)NCCN(C)C)C2CCC1(C(Cc1ccccc1Cl)Nc1ccccc1)O2 (stereo not shown) [Compound 691] | ++ |  |
| COC(=O)C1=C(C(=O)Nc2ccc(C)c(F)c2)C2CCC1(C(Cc1ccccc1Cl)Nc1ccccc1)O2 (stereo not shown) [Compound 692] | + |  |
| COC(=O)C1=C(C(=O)OC)C2(C(Cc3ccc(C4CC4)cc3)Nc3ccccc3)C=CC1O2 (stereo not shown) [Compound 693] | ++ |  |
| COC(=O)C1=C(C(=O)OC)C2(C(Cc3ccccc3Cl)N[S@+]([O-])C(C)(C)C)CCC1O2 (stereo partly shown) [Compound 694] | ++ |  |
| COC(=O)C1=C(C(=O)OC)C2(C(Cc3ccccc3)Nc3ccccc3)C=CC1(c1ccccc1)O2 (stereo not shown) [Compound 696] | + |  |
| COC(=O)C1=C(C(=O)OC)C2(C(Cc3ccc(-c4cc[nH]n4)cc3)Nc3ccccc3)C=CC1O2 (stereo not shown) [Compound 698] | +++ |  |

Further lines, with some results ahead:

| SUMO [1] | SMILES | c-Myc [2] |
| --- | --- | --- |
| ++ | COC(=O)C1=C(C(=O)Nc2ccccc2)C2C=CC1(C(Cc1ccccc1)Nc1ccccc1)O2 (stereo not shown) [Compound 163] | + |
| ++ | COC(=O)C1=C(C(=O)Nc2ccc(F)cc2)C2C=CC1(C(Cc1ccccc1)Nc1ccccc1)O2 (stereo not shown) [Compound 166] | + |
| ++ | COC(=O)C1=C(C(=O)OC)C2(C(Cc3ccccc3)Nc3cc(F)cc(F)c3)C=CC1O2 (stereo not shown) [Compound 167] | + |
| ++ | COC(=O)C1=C(C(=O)OC)C2(C(Cc3ccccc3)Nc3c(F)cccc3F)C=CC1O2 (stereo not shown) [Compound 169] | + |
| ++ | COC(=O)C1=C(C(=O)OC)C2(C(Cc3ccccc3)Nc3ccc(F)cc3F)C=CC1O2 (stereo not shown) [Compound 171] | ++ |
| ++ | C=CCCC(Nc1ccccc1)C12C=CC(O1)C(C(=O)Nc1ccc(OC)cc1)=C2C(=O)OC (stereo not shown) [Compound 176] | + |
| ++ | COC(=O)C1=C(C(=O)Nc2ccc(OC)cc2)C2C=CC1(C(Nc1ccccc1)C1CCC1)O2 (stereo not shown) [Compound 178] | + |
| + | COC(=O)C1=C(C(=O)Nc2cccc(OC)c2)C2C=CC1(C(Cc1ccccc1)Nc1ccccc1)O2 (stereo not shown) [Compound 180] | + |
| +++ | COC(=O)C1=C(C(=O)Nc2ccc(OC)cc2)C2C=CC1(C(Cc1ccccc1)Nc1cc(F)cc(F)c1)O2 (stereo not shown) [Compound 204] | + |
| ++ | COC(=O)C1=C(C(=O)NNc2ccccc2)C2C=CC1(C(Cc1ccccc1)Nc1cc(F)cc(F)c1)O2 (stereo not shown) [Compound 205] | ++ |
| ++ | CNC(=O)C1=C(C(=O)OC)C2(C(Cc3ccccc3)Nc3cc(F)cc(F)c3)C=CC1O2 (stereo not shown) [Compound 208] | + |
| ++ | COC(=O)C1=C(C(=O)OC)C2(C(Cc3ccccc3)Nc3cc(F)cc(Cl)c3)C=CC1O2 (stereo not shown) [Compound 209] | + |
| ++ | COC(=O)C1=C(C(=O)O)C2C=CC1(C(Cc1ccccc1)Nc1cc(F)cc(Cl)c1)O2 (stereo not shown) [Compound 214] | + |
| ++ | COC(=O)C1=C(C(=O)NNc2ccccc2)C2C=CC1(C(Cc1ccccc1)Nc1cc(F)cc(Cl)c1)O2 (stereo not shown) [Compound 215] | + |
| ++ | COC(=O)C1=C(C(=O)NCc2ccncc2)C2C=CC1(C(Cc1ccccc1)Nc1cc(F)cc(Cl)c1)O2 (stereo not shown) [Compound 216] | ++ |
| + | COC(=O)C1=C(C(N)=O)C2C=CC1(C(Cc1ccccc1)Nc1cc(F)cc(Cl)c1)O2 (stereo not shown) [Compound 217] | ++ |
| +++ | COC(=O)C1=C(C(=O)Nc2ccc(OC)nc2)C2C=CC1(C(Cc1ccccc1)Nc1cc(F)cc(Cl)c1)O2 (stereo not shown) [Compound 218] | + |
| ++ | COC(=O)C1=C(C(=O)Nc2ccncc2)C2C=CC1(C(Cc1ccccc1)Nc1cc(F)cc(Cl)c1)O2 (stereo not shown) [Compound 220] | + |
| ++ | COC(=O)C1=C(C(=O)Nc2cccnc2)C2C=CC1(C(Cc1ccccc1)Nc1ccccc1)O2 (stereo not shown) [Compound 223] | + |
| +++ | COC(=O)C1=C(C(=O)NCCN(C)C)C2C=CC1(C(Cc1ccccc1)Nc1cc(F)cc(Cl)c1)O2 (stereo not shown) [Compound 227] | + |
| ++ | COC(=O)C1=C(C(=O)NC2CCN(C)CC2)C2C=CC1(C(Cc1ccccc1)Nc1cc(F)cc(F)c1)O2 (stereo not shown) [Compound 240] | + |
| ++ | CNc1ccc(CC(Nc2ccccc2)C23C=CC(O2)C(C(=O)OC)=C3C(=O)OC)cc1 (stereo not shown) [Compound 685] |  |
